Patent US20050170485A1, “Culture having phenol oxidase-like activity” (priority 2002, published 2005)

Legend:
[1] = biological target: T1, bilirubin oxidase from a strain belonging to the genus Myrothecium (Albifimbria verrucaria, UniProt Q12737); test: Decolorization / degradation / polymerization of pigments and lignin by bilirubin oxidase (comparison); type: biochemical; settings: reaction pH 8.0; without sign = degradation or decolorization, minus = polymerization activity
T1 sequence (Q12737 39-572): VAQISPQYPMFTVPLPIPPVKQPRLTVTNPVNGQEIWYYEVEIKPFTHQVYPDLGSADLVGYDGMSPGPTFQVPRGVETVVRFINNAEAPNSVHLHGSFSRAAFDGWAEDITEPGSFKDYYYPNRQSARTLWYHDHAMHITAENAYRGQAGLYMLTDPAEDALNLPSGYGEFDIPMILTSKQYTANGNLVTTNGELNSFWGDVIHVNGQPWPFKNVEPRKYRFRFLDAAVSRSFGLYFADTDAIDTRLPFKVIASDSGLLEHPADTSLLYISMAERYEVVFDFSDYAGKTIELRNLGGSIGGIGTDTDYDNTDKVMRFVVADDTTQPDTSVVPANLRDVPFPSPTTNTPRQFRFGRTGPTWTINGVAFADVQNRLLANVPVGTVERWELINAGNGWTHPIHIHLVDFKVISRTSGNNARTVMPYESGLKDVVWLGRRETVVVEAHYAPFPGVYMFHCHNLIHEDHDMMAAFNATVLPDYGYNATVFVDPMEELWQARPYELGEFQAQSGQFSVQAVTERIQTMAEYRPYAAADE
Experimental: (§1) Concretely, 950 μl of 105.3 mM sodium phosphate buffer (pH 7.0) containing a substrate adjusted to have a final concentration as shown in Table 2 was pre-incubated at 25° C. for 5 minutes. Next, 50 μl of the culture solution was added to the resulting product, and thereafter, the mixture was reacted in a cuvette. The absorbance for each substrate was determined at a measuring wavelength with a spectrophotometer (manufactured by Shimadzu Corporation, trade name: UV-2450). For the comparison, the examination was also made for bilirubin oxidase from a strain belonging to the genus Myrothecium in the same manner by replacing the above-mentioned buffer with 105.3 mM Tris-HCl buffer (pH 8.0).
(§2) Here, 1 U (unit) of the activity was defined as an amount for increasing the absorbance by 1 per one minute. In Table 3, a specific activity shown without a sign indicates degradation activity or decolorization activity, and a specific activity shown with—(minus) indicates polymerization activity.

[2] = test system: culture of Flammulina velutipes strain IFO 30601; test: Decolorization / oxidative degradation / oxidative polymerization of pigments and lignin by the culture; type: biochemical; settings: for specificity of the culture compared with bilirubin oxidase from the genus Myrothecium: Table 3; for reaction of the substrate catalyzed by the culture (in words): neutral conditions; for Specific Activity, Culture: reaction pH 7.0, 25° C., without sign = degradation or decolorization, minus = polymerization activity
Description: The decolorization activity on the respective dyes can be evaluated by measuring as the dye, Evans' Blue, Acid Blue 80, Remazol Brilliant Blue R and Acid Violet 17 in the step c) for their absorbance at 600 nm, 600 nm, 600 nm and 550 nm respectively. In addition, regarding the lignin, the oxidative degradation activity on the respective dyes can be evaluated by measuring the absorbance at 450 nm in the step c). The oxidative polymerization activity on the respective dyes can be evaluated by measuring as the dye, Indigo Carmine and Natural Orange 6 in the step c) for their absorbance at 600 nm and 450 nm respectively.
Next, chemical changes of various substrates generated by the action of the culture for the substrate specificity of the culture obtained in (2) of Example 1 was examined by determining a change in the absorbance of the buffer containing each substrate.
As the substrate, commercially available pigments (Evans' Blue, Acid Blue 80, Remazol Brilliant Blue R, Indigo Carmine, Acid Violet 17, Natural Orange) and lignin (trade name: Lignin Alkali, manufactured by Tokyo Kasei) were used.
as §1, §2

| Compound | Specific Activity, Bilirubin Oxidase from Strain Belonging to Genus Myrothecium [1] [U/mg Protein] | specificity of the culture compared with bilirubin oxidase from the genus Myrothecium [2] | reaction of the substrate catalyzed by the culture (in words) [2] | Specific Activity, Culture [2] [U/mg Protein] |
| --- | --- | --- | --- | --- |
| CCN(CC)c1ccc(C(=C2C=CC(=[N+](CC)Cc3cccc(S(=O)(=O)[O-])c3)C=C2)c2ccc(N(CC)Cc3cccc(S(=O)(=O)[O-])c3)cc2)cc1.[Na+] [Acid Violet 17] | −0.40 | significantly differs | oxidative decolorization reaction | 0.12 |
| O=C1/C(=C2\Nc3ccc(S(=O)(=O)[O-])cc3C2=O)Nc2ccc(S(=O)(=O)[O-])cc21.[Na+].[Na+] [Indigo Carmine] | 0.46 | significantly differs | oxidative polymerization reaction | −0.22 |
| Cc1cc(-c2ccc(/N=N/c3ccc4c(S(=O)(=O)[O-])cc(S(=O)(=O)[O-])c(N)c4c3O)c(C)c2)ccc1/N=N/c1ccc2c(S(=O)(=O)[O-])cc(S(=O)(=O)[O-])c(N)c2c1O.[Na+].[Na+].[Na+].[Na+] [Evans' Blue] | 1.22 | – | – | 0.32 |
